Test system: BV-2
Experiment: Antiinflammatory activity in mouse BV2 cells assessed as inhibition of LPS-induced nitric oxide production after 24 hrs by griess assay
Type: functional, cell-based
Conditions: BV-2, 24 h

For `O=c1c(O)c(-c2ccc(O)c(O)c2)oc2cc(O)cc(O)c12` [QUERCETIN], the IC50 was 7.2 µM.
Work on `C=C(C)[C@H](O)[C@H](OC(=O)CC(C)C)c1c(OC)ccc2ccc(=O)oc12` yielded an IC50 of 26.4 µM.
`C=C(C)[C@H](O)[C@H](C[C@@](C)(O)/C=C/c1c(OC)ccc2ccc(=O)oc12)c1c(OC)ccc2ccc(=O)oc12` gave an IC50 of 28.9 µM.
`COc1ccc2ccc(=O)oc2c1C(=O)C(OC(=O)CC(C)C)=C(C)C` showed an IC50 of 37.6 µM.
Compound `OC/C=C/c1ccc(O)c(/C=C/[C@]23CCC(CO)=C[C@H]2c2cc(/C=C/CO)ccc2O[C@H]3O)c1` has an IC50 of 8.6 µM.
With `C=C(C)/C=C/c1c(OC)ccc2ccc(=O)oc12` the IC50 was 11.8 µM.
`OC/C=C/c1ccc(O)c(/C=C/[C@@]23CCC(CO)=C[C@H]2c2cc(/C=C/CO)ccc2O[C@H]3O)c1` showed an IC50 greater than 50 µM.
`C=C(C)[C@@H]1O[C@H](C(=C(C)C)c2c(OC)ccc3ccc(=O)oc23)O[C@@H]1c1c(OC)ccc2ccc(=O)oc12` showed an IC50 of 37.6 µM.
`COc1ccc2ccc(=O)oc2c1/C=C\C(C)=O` was tested, and the IC50 was 16.9 µM.
For `C=C(C)C(O)Cc1c(OC)cc(OC)c2ccc(=O)oc12` (stereo unspecified), the IC50 was 15.5 µM.
For `C=C(C)[C@H](OC(=O)CC(C)C)[C@H](O)c1c(OC)ccc2ccc(=O)oc12`, the IC50 was 21.3 µM.
